Measurements as given in PubChem BioAssay AID1919003 (Molecular Pharmacology Branch, DTP, NCI, 2023).
pIC50: −log10 of the molar value.

Tested on: 786-0 complex spheroids with HUVEC/MSC, growth % test/control
Assay: Anticancer human tumor 786-0 cell line growth inhibition [AhR];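 further: compound exposure lasted seven days before the read-out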
Conditions: for pIC50: curve of first compound; for viability, T/C: stronger effect = lower value
Procedure, shortened: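 Agents were dosed in half-log steps down from roughly clinical Cmax, or from 10 microM where Cmax was unknown, alone and with AhR antagonists. Read-out: percent test/control growth of tumor spheroids containing HUVEC and MSC stromal cells.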

[1] = second compound 0.1 µM, first compound 0.0316 µM
[2] = second compound 0.1 µM, first compound 0.1 µM
[3] = second compound 0.1 µM, first compound 0.316 µM
[4] = second compound 0.1 µM, first compound 1 µM
[5] = second compound 0.1 µM, first compound 3.16 µM
[6] = second compound 0.1 µM, first compound 10 µM
[7] = second compound 0.316 µM, first compound 0.0316 µM
[8] = second compound 0.316 µM, first compound 0.1 µM
[9] = second compound 0.316 µM, first compound 0.316 µM
[10] = second compound 0.316 µM, first compound 1 µM
[11] = second compound 0.316 µM, first compound 3.16 µM
[12] = second compound 0.316 µM, first compound 10 µM
[13] = second compound 1 µM, first compound 0.0316 µM
[14] = second compound 1 µM, first compound 0.1 µM
[15] = second compound 1 µM, first compound 0.316 µM
[16] = second compound 1 µM, first compound 1 µM
[17] = second compound 1 µM, first compound 3.16 µM
[18] = second compound 1 µM, first compound 10 µM
[19] = second compound 3.16 µM, first compound 0.0316 µM
[20] = second compound 3.16 µM, first compound 0.1 µM
[21] = second compound 3.16 µM, first compound 0.316 µM
[22] = second compound 3.16 µM, first compound 1 µM
[23] = second compound 3.16 µM, first compound 3.16 µM
[24] = second compound 3.16 µM, first compound 10 µM
[25] = second compound 10 µM, first compound 0.0316 µM
[26] = second compound 10 µM, first compound 0.1 µM
[27] = second compound 10 µM, first compound 0.316 µM
[28] = second compound 10 µM, first compound 1 µM
[29] = second compound 10 µM, first compound 3.16 µM
[30] = second compound 10 µM, first compound 10 µM

## CC(C)c1c(-c2ccccc2)nc2c(C#N)c[nH]n2c1=O + CC(CO)NC(=O)c1cc(-c2ccc(Cl)cc2)nn(-c2cnn(C)c2)c1=O
Second compound 0.1 µM
  pIC50: < 5.00
Second compound 0.316 µM
  pIC50: < 5.00
Second compound 1 µM
  pIC50: < 5.00
Second compound 3.16 µM
  pIC50: < 5.00
Second compound 10 µM
  pIC50: < 5.00
[1]
  viability, T/C: 98%
[2]
  viability, T/C: 95.9%
[3]
  viability, T/C: 104%
[4]
  viability, T/C: 106%
[5]
  viability, T/C: 93.7%
[6]
  viability, T/C: 104%
[7]
  viability, T/C: 95%
[8]
  viability, T/C: 101%
[9]
  viability, T/C: 93.2%
[10]
  viability, T/C: 95.1%
[11]
  viability, T/C: 92.3%
[12]
  viability, T/C: 90%
[13]
  viability, T/C: 99.9%
[14]
  viability, T/C: 99.1%
[15]
  viability, T/C: 105%
[16]
  viability, T/C: 104%
[17]
  viability, T/C: 107%
[18]
  viability, T/C: 96.2%
[19]
  viability, T/C: 100%
[20]
  viability, T/C: 96.5%
[21]
  viability, T/C: 97.9%
[22]
  viability, T/C: 99.5%
[23]
  viability, T/C: 106%
[24]
  viability, T/C: 101%
[25]
  viability, T/C: 118%
[26]
  viability, T/C: 105%
[27]
  viability, T/C: 105%
[28]
  viability, T/C: 108%
[29]
  viability, T/C: 103%
[30]
  viability, T/C: 125%

## CC(C)c1c(-c2ccccc2)nc2c(C#N)c[nH]n2c1=O + Cc1ccccc1N=Nc1ccc(NC(=O)c2ccnn2C)c(C)c1
Second compound 0.1 µM
  pIC50: < 5.00
Second compound 0.316 µM
  pIC50: < 5.00
Second compound 1 µM
  pIC50: < 5.00
Second compound 3.16 µM
  pIC50: < 5.00
Second compound 10 µM
  pIC50: < 5.00
[1]
  viability, T/C: 93.9%
[2]
  viability, T/C: 99.9%
[3]
  viability, T/C: 99.5%
[4]
  viability, T/C: 101%
[5]
  viability, T/C: 92.1%
[6]
  viability, T/C: 99%
[7]
  viability, T/C: 90.1%
[8]
  viability, T/C: 93.4%
[9]
  viability, T/C: 97.1%
[10]
  viability, T/C: 95.5%
[11]
  viability, T/C: 92.6%
[12]
  viability, T/C: 95.2%
[13]
  viability, T/C: 94.6%
[14]
  viability, T/C: 92.8%
[15]
  viability, T/C: 114%
[16]
  viability, T/C: 98.6%
[17]
  viability, T/C: 96.3%
[18]
  viability, T/C: 88.9%
[19]
  viability, T/C: 86.8%
[20]
  viability, T/C: 85.3%
[21]
  viability, T/C: 89.6%
[22]
  viability, T/C: 82.8%
[23]
  viability, T/C: 85%
[24]
  viability, T/C: 84.2%
[25]
  viability, T/C: 86.6%
[26]
  viability, T/C: 83.9%
[27]
  viability, T/C: 84.5%
[28]
  viability, T/C: 82.4%
[29]
  viability, T/C: 83.1%
[30]
  viability, T/C: 79.5%

## Nc1ncn(C2CC(O)C(CO)S2)c(=O)n1 (stereo not given) + Cc1ccccc1N=Nc1ccc(NC(=O)c2ccnn2C)c(C)c1
Second compound 0.1 µM
  pIC50: < 6.52
Second compound 0.316 µM
  pIC50: < 6.52
Second compound 1 µM
  pIC50: < 6.52
Second compound 3.16 µM
  pIC50: < 6.52
Second compound 10 µM
  pIC50: < 6.52
Second compound 0.1 µM, first compound 0.000949 µM
  viability, T/C: 102%
Second compound 0.1 µM, first compound 0.003 µM
  viability, T/C: 99.8%
Second compound 0.1 µM, first compound 0.00949 µM
  viability, T/C: 105%
Second compound 0.1 µM, first compound 0.03 µM
  viability, T/C: 99.6%
Second compound 0.1 µM, first compound 0.0949 µM
  viability, T/C: 83.6%
Second compound 0.1 µM, first compound 0.3 µM
  viability, T/C: 68.7%
Second compound 0.316 µM, first compound 0.000949 µM
  viability, T/C: 100%
Second compound 0.316 µM, first compound 0.003 µM
  viability, T/C: 100%
Second compound 0.316 µM, first compound 0.00949 µM
  viability, T/C: 103%
Second compound 0.316 µM, first compound 0.03 µM
  viability, T/C: 98.2%
Second compound 0.316 µM, first compound 0.0949 µM
  viability, T/C: 100%
Second compound 0.316 µM, first compound 0.3 µM
  viability, T/C: 73.1%
Second compound 1 µM, first compound 0.000949 µM
  viability, T/C: 99.6%
Second compound 1 µM, first compound 0.003 µM
  viability, T/C: 96.5%
Second compound 1 µM, first compound 0.00949 µM
  viability, T/C: 112%
Second compound 1 µM, first compound 0.03 µM
  viability, T/C: 97.1%
Second compound 1 µM, first compound 0.0949 µM
  viability, T/C: 91.2%
Second compound 1 µM, first compound 0.3 µM
  viability, T/C: 75%
Second compound 3.16 µM, first compound 0.000949 µM
  viability, T/C: 93.3%
Second compound 3.16 µM, first compound 0.003 µM
  viability, T/C: 99.9%
Second compound 3.16 µM, first compound 0.00949 µM
  viability, T/C: 94%
Second compound 3.16 µM, first compound 0.03 µM
  viability, T/C: 101%
Second compound 3.16 µM, first compound 0.0949 µM
  viability, T/C: 86%
Second compound 3.16 µM, first compound 0.3 µM
  viability, T/C: 69.6%
Second compound 10 µM, first compound 0.000949 µM
  viability, T/C: 91.1%
Second compound 10 µM, first compound 0.003 µM
  viability, T/C: 108%
Second compound 10 µM, first compound 0.00949 µM
  viability, T/C: 90.8%
Second compound 10 µM, first compound 0.03 µM
  viability, T/C: 88.2%
Second compound 10 µM, first compound 0.0949 µM
  viability, T/C: 82.8%
Second compound 10 µM, first compound 0.3 µM
  viability, T/C: 63.4%
